Test results from patent US20220088040A1, “Use of System XC-Inhibitor for Treating Statin-Induced Myalgia” (Exerkine Corporation, priority 2017, published 2022).

How the values were obtained:
C2C12 myotubes = assay: Glutamate efflux from C2C12 myotubes (Amplex Red glutamic acid assay of culture media); format: cell-based, murine; settings: for effect on glutamate efflux caused by atorvastatin: sulfasalazine 20 μM, cysteamine bitartrate 100 and 300 μM, vitamin E 100 μM, coenzyme Q10 50 μM; for glutamate efflux levels: co-treated with atorvastatin 5 μM and sulfasalazine 20 μM
Sprague Dawley rats = assay: Extramyocellular glutamate in rat gastrocnemius muscle by interstitial microdialysis; format: in vivo; settings: 10 days, muscle dialysate (FIG. 6)
system Xc- subunit xCT = assay: xCT protein content in C2C12 myotubes by chemiluminescent immunoblot; format: cell-based, murine; settings: atorvastatin 5 μM
[1] = system: primary human fibroblasts; assay: Glutamate efflux from primary human fibroblasts; format: cell-based; settings: statin (atorvastatin 5 μM) (FIG. 3B)
primary human myoblasts = settings: co-treatment of statin (atorvastatin 5 μM) with sulfasalazine 20 μM (FIG. 3A)
[2] = 5 μM atorvastatin, combination 100 μM vitamin E + 35 μM coenzyme Q10, N-acetylcysteine 5 mM (FIG. 4)
[3] = 7.5 μM atorvastatin, combination 100 μM vitamin E + 35 μM coenzyme Q10, N-acetylcysteine 5 mM (FIG. 5)

How did the “effect on glutamate efflux caused by atorvastatin” value (“effect on glutamate efflux caused” for short) (C2C12 myotubes; [2]) turn out when `NCCS.O=C(O)C(O)C(O)C(=O)O` (stereo not shown) [Cysteamine bitartrate] was run?
The value was “mitigated”.

What about the “effect on glutamate efflux caused” value (C2C12 myotubes; [3]) of the same molecule?
Its value is “mitigated”.

For `CC(=O)N[C@@H](CS)C(=O)O` [N-acetylcysteine], which “effect on glutamate efflux caused” value (C2C12 myotubes; [2]) is on record?
Its value is “substantially increased”.

What about the “effect on glutamate efflux caused” value (C2C12 myotubes; [3]) of the same molecule?
Its value is “substantially increased”.

What does the source list for `CC(C)c1c(C(=O)Nc2ccccc2)c(-c2ccccc2)c(-c2ccc(F)cc2)n1CC[C@@H](O)C[C@@H](O)CC(=O)O` [atorvastatin]?
increase in extramyocellular glutamate concentrations compared with the Control group (Sprague Dawley rats; atorvastatin 40 mg/kg/day oral): 21%; elevated xCT protein level (system Xc- subunit xCT; 24 hour time point (FIG. 1)): still present; elevation in xCT abundance (system Xc- subunit xCT; after 12 hours, vs vehicle (FIG. 1)): approximately 2 fold; extracellular glutamate concentrations [1]: no changes

Which results are given for `O=C(O)c1cc(/N=N/c2ccc(S(=O)(=O)Nc3ccccn3)cc2)ccc1O` [sulfasalazine]?
extramyocellular glutamate concentrations, lower than Control (Sprague Dawley rats; atorvastatin 40 mg/kg/day with sulfasalazine 200 mg/kg/day oral): 19%; glutamate efflux / extracellular glutamate levels (primary human myoblasts): blocked this efflux and further reduced extracellular glutamate levels to those below the vehicle control group; effect on glutamate efflux caused by atorvastatin (C2C12 myotubes; [2]): inhibited; effect on glutamate efflux caused by atorvastatin (C2C12 myotubes; [3]): inhibited; glutamate efflux levels (C2C12 myotubes; 6 hour time point (FIG. 2)): initial increase; glutamate efflux levels (C2C12 myotubes; 12 hour to 24 hour time points (FIG. 2)): declined to baseline levels; glutamate efflux (C2C12 myotubes; sulfasalazine alone 20 μM, throughout the 0-24 h treatment period (FIG. 2)): around those of baseline values

Which “effect on glutamate efflux caused” value (C2C12 myotubes; [2]) does the source give for `COc1c(O)c(C)c(C/C=C(\C)CC/C=C(\C)CC/C=C(\C)CC/C=C(\C)CC/C=C(\C)CC/C=C(\C)CC/C=C(\C)CC/C=C(\C)CC/C=C(\C)CCC=C(C)C)c(O)c1OC` [ubiquinol] here?
The value was “mitigated”.

And the “effect on glutamate efflux caused” value (C2C12 myotubes; [3])?
Its value is “mitigated”.

Which “effect on glutamate efflux caused” value (C2C12 myotubes; [2]) does the source give for vitamin E here?
The value was “mitigated”.

And the “effect on glutamate efflux caused” value (C2C12 myotubes; [3])?
The value was “mitigated”.
